ChEMBL document CHEMBL1142268, “Histone deacetylase inhibitors: from bench to clinic” (J Med Chem, 2008)

Legend:
HT-1080 = test: Inhibition of human HT1080 cells; format: functional, cell-based
Histone deacetylase [1] = test: Inhibition of HDAC from human K562 cells; format: cell-based
MKN-45 = test: Antiproliferative activity against human MKN45 cells; format: functional, cell-based
Histone deacetylase [2] = test: Inhibition of HDAC from human HeLa cells; format: cell-based
HCT-116 = test: Inhibition of human HCT116 cells; format: functional, cell-based
Histone deacetylase 1 = Histone deacetylase 1 (Homo sapiens, UniProt Q13547); test: Inhibition of HDAC1 from human HeLa cells; format: cell-based
Histone deacetylase 1, sequence (Q13547 whole entry): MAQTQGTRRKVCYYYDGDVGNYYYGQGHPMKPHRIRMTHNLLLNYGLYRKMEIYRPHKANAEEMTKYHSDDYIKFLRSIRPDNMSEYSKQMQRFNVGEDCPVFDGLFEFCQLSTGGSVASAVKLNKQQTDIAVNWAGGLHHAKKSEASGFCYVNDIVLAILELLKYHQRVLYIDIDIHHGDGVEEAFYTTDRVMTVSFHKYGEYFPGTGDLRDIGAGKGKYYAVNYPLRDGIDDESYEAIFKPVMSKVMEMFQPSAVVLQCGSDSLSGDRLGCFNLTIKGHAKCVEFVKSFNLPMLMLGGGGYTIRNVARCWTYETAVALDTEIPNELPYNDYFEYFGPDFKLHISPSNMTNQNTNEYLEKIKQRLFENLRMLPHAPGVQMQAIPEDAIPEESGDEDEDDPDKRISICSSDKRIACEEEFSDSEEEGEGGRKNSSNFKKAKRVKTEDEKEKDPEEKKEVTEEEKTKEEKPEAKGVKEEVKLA

## O=C(CCCCCCc1nc(-c2ccc(-c3ccccc3)cc2)cs1)NO
HT-1080
  IC50: 1.32 µM
Histone deacetylase [1]
  IC50: 0.011 µM

## O=C(NO)c1ccc(-c2ccn(CCNCc3ccc(-n4ccnc4)cc3)n2)s1
MKN-45
  IC50: 0.56 µM

## O=C(CCCCCCc1cnc(-c2ccc(Br)cc2)o1)NO
HT-1080
  IC50: 27 µM
Histone deacetylase [1]
  IC50: 0.0044 µM

## O=C(NO)c1ccc(-c2cccnc2)s1
Histone deacetylase [2]
  IC50: 1.13 µM

## C1=C\CCCCCC[n+]2cccc(c2)CCCCCCCCCCCC[n+]2cccc(c2)CCCCCC/1
Histone deacetylase [1]
  IC50: 27 µM

## COc1ccc(-c2nc3ccc(F)cc3o2)cc1NC(=O)NCCCCCC(=O)NO
Histone deacetylase [2]; read-out: IC50
  IC50: 0.018 µM

## O=C(NO)c1ccc(-c2ccncc2)s1
Histone deacetylase [2]
  IC50: 1.26 µM

## COc1ccc(CNc2ccc(C(=O)Nc3ccccc3N)cn2)cc1
HCT-116
  IC50: 0.5 µM

## Cn1nc(C(F)(F)F)cc1-c1ccc(C(=O)NO)s1
MKN-45
  IC50: 31.5 µM

## CC(=O)CCCCC[C@H](NC(C)=O)C(=O)NCCc1c(-c2ccccc2)[nH]c2ccccc12
Histone deacetylase 1
  IC50: 7.6 µM

## O=C(Cn1ccc(-c2ccc(C(=O)NO)s2)n1)Nc1cccc2cccnc12
MKN-45
  IC50: 0.2 µM

## COc1ccc(NS(=O)(=O)c2cccc(/C=C/C(=O)NO)c2)cc1OC
Histone deacetylase [2]; read-out: IC50
  IC50: 0.023 µM

## CSCCCCCCC(=O)Nc1ccccc1
Histone deacetylase [2]
  IC50: > 100 µM

## COC(=O)C(=O)CCCCCCOc1ccc(-c2ccccc2)cc1
Histone deacetylase [1]
  IC50: 0.062 µM

## Nc1ccccc1NC(=O)CCCCCCNC(=O)c1cccc(-c2ccccc2)c1
HCT-116
  IC50: 12 µM

## O=C(NO)c1ccc(-c2ccn(CCOc3ccccc3)n2)s1
MKN-45
  IC50: 1.5 µM

## COc1ccc(-c2cnc(CCCCCCC(=O)NO)o2)cc1
HT-1080
  IC50: 0.31 µM
Histone deacetylase [1]
  IC50: 0.0021 µM

## COc1cc(NCc2ccc(/C=C/C(=O)Nc3ccccc3N)cn2)cc(OC)c1OC
HCT-116
  IC50: 3 µM

## COc1cccc(OC)c1-c1csc(CCCCCCC(=O)NO)n1
HT-1080
  IC50: 2 µM
Histone deacetylase [1]
  IC50: 0.0043 µM

## O=C(CCCCCCc1cnc(-c2ccc(-c3ccccc3)cc2)o1)NO
HT-1080
  IC50: 15.3 µM
Histone deacetylase [1]
  IC50: 0.012 µM

## O=C(/C=C/c1ccc(NS(=O)(=O)c2ccc(-c3ccccc3)cc2)cc1)NO
Histone deacetylase [2]; read-out: IC50
  IC50: 0.03 µM

## O=C(/C=C/c1cccc(S(=O)(=O)NCc2ccccc2)c1)NO
Histone deacetylase [2]; read-out: IC50
  IC50: 0.034 µM

## C[C@@H]1C(=O)N[C@H](C)C(=O)N[C@H](C)C(=O)N[C@H](Cc2ccccc2)C(=O)N[C@@H]1C/C=C\CCC(N)=O [AZUMAMIDE D]
Histone deacetylase [1]
  IC50: 1.3 µM

## O=C(NO)c1ccc(-c2ccn(Cc3ccccc3)n2)s1
MKN-45
  IC50: 4.54 µM

## COc1ccc(-c2csc(CCCCCCC(=O)NO)n2)cc1
HT-1080
  IC50: 3.63 µM
Histone deacetylase [1]
  IC50: 0.0025 µM

## Cc1ccc(S(=O)(=O)Nc2cccc(/C=C/C(=O)NO)c2)cc1
Histone deacetylase [2]; read-out: IC50
  IC50: 0.123 µM

## O=C(/C=C/c1cccc(NS(=O)(=O)c2ccccc2)c1)NO
Histone deacetylase [2]; read-out: IC50
  IC50: 0.188 µM

## Nc1ccccc1NC(=O)c1ccc(/C=C/CNc2nccc(-c3cccnc3)n2)cc1
HCT-116
  IC50: 0.2 µM

## NC(=O)C(=O)CCCCCCOc1ccc(-c2ccccc2)cc1
Histone deacetylase [1]
  IC50: > 50 µM

## Nc1ccccc1NC(=O)/C=C/c1ccc(NCc2ccccc2)nc1
HCT-116
  IC50: 1 µM

## O=C(CCCCCCc1nc(-c2ccc3ccccc3c2)cs1)NO
HT-1080
  IC50: 2.39 µM
Histone deacetylase [1]
  IC50: 0.0043 µM

## Nc1ccccc1NC(=O)c1ccc(/C=C/C(=O)NCCc2c[nH]c3ccccc23)cc1
HCT-116
  IC50: 0.3 µM

## Nc1ccccc1NC(=O)c1ccc(CSc2nc3ccccc3[nH]2)cc1
HCT-116
  IC50: 0.32 µM

## COc1ccccc1NC(=O)Cn1ccc(-c2ccc(C(=O)NO)s2)n1
MKN-45
  IC50: 0.23 µM

## O=C(CCCCCNC(=O)Nc1cccc(-c2nc3ccc(F)cc3o2)c1)NO
Histone deacetylase [2]; read-out: IC50
  IC50: 0.009 µM

## O=C(/C=C/c1cccc(S(=O)(=O)Nc2ccc(-c3ccccc3)cc2)c1)NO
Histone deacetylase [2]; read-out: IC50
  IC50: 0.054 µM

## COc1ccc(-c2nc3cc(F)ccc3o2)cc1NC(=O)NCCCCCC(=O)NO
Histone deacetylase [2]; read-out: IC50
  IC50: 0.015 µM

## CN(c1ccccc1)S(=O)(=O)c1cccc(/C=C/C(=O)NO)c1
Histone deacetylase [2]; read-out: IC50
  IC50: 0.476 µM

## Nc1ccccc1NC(=O)CCCCCCNC(=O)c1ccc(-c2ccccc2)cc1
HCT-116
  IC50: 7 µM

## O=C(CCCCCNC(=O)Nc1cccc(-c2nc3ccccc3o2)c1)NO
Histone deacetylase [2]; read-out: IC50
  IC50: 0.008 µM

## Cc1ccc(NS(=O)(=O)c2cccc(/C=C/C(=O)NO)c2)cc1
Histone deacetylase [2]; read-out: IC50
  IC50: 0.018 µM

## O=C(CCCCCCc1nc(-c2ccccc2)cs1)NO
HT-1080
  IC50: 5.07 µM
Histone deacetylase [1]
  IC50: 0.019 µM

## COc1ccc(-c2nc3ccccc3o2)cc1NC(=O)NCCCCCC(=O)NO
Histone deacetylase [2]; read-out: IC50
  IC50: 0.012 µM

## O=C(NO)c1ccc(-c2ccn(CCOCc3ccccc3)n2)s1
MKN-45
  IC50: 0.75 µM

## O=C(CCCCCCc1ncc(-c2ccc(Br)cc2)o1)NO
HT-1080
  IC50: 7.7 µM
Histone deacetylase [1]
  IC50: 0.0027 µM

## CCNC(=O)C(=O)CCCCCCOc1ccc(-c2ccccc2)cc1
Histone deacetylase [1]
  IC50: 4.9 µM

## COc1ccc(CNc2ccc(/C=C/C(=O)Nc3ccccc3N)cc2)cc1
HCT-116
  IC50: 37 µM

## O=C(/C=C/c1ccc(S(=O)(=O)Nc2ccc(-c3ccccc3)cc2)cc1)NO
Histone deacetylase [2]; read-out: IC50
  IC50: 0.066 µM

## CC(=O)CCCCC[C@H](NC(=O)C1CCCN(C)C1)C(=O)NCCc1c(-c2ccccc2)[nH]c2ccccc12 (some centres undefined)
Histone deacetylase 1
  IC50: 2 µM

## O=C(O)CNC(=O)C(=O)CCCCCCOc1ccc(-c2ccccc2)cc1
Histone deacetylase [1]
  IC50: > 50 µM
